Four compounds from US20260138958A1, “SUBSTITUTED N-PHENYLURACILS AND SALTS THEREOF, AND USE THEREOF AS HERBICIDAL ACTIVE SUBSTANCES” (Bayer Aktiengesellschaft, priority 2022, published 2026) can be followed below.

What all share (format): in vivo
The test system of data set [1] is Echinochloa crus-galli (ECHCG). Nature of the data set: Post-emergence herbicidal action, greenhouse pot test. The procedure:
(§1) Seeds of monocotyledonous and dicotyledonous weeds and crop plants were placed in sandy loam in plastic or wood-fibre pots, covered with soil and cultivated in a greenhouse under controlled growth conditions. 2 to 3 weeks after sowing, the test plants were treated at the one-leaf stage. The compounds of the invention, formulated in the form of wettable powders (WP) or as emulsion concentrates (EC), were then sprayed onto the green parts of the plants as aqueous suspension or emulsion with addition of 0.5% additive at a water application rate of 600 l/ha (converted). After the test plants had been kept in the greenhouse under optimum growth conditions for about 3 weeks, the activity of the preparations was rated visually in comparison to untreated controls. For example, 100% activity=the plants have died, 0% activity=like control plants.

The test system of another data set is Setaria viridis (SETVI). The data set is described as above. The procedure:
as §1

The next data set relates to Veronica persica (VERPE). Described as above. On the procedure:
as §1

In data set [2] the test system is Pharbitis purpurea (PHBPU). The data set is described as above. On the procedure: as §1
In a further data set the test system is Bassia scoparia (KCHSC). The description is as above. On the procedure:
as §1

For data set [3], the system named is Amaranthus retroflexus (AMARE). The data set is described as above. The procedure:
as §1

The subject of data set [4] is Alopecurus myosuroides (ALOMY). Described as above. On the procedure: as §1
For data set [5], the system named is Digitaria sanguinalis (DIGSA). The data set is described as above. On the procedure: as §1
The test system of data set [6] is Tripleurospermum inodorum (MATIN). Described as above. On the procedure: as §1
For data set [7], the system named is Abutilon theophrasti (ABUTH). Described as above. The procedure: as §1
Data set [8] concerns Polygonum convolvulus (POLCO). Described as above. The following applies: 20 g/ha. The procedure:
as §1

In another data set the test system is Viola tricolor (VIOTR). The description is as above. On the procedure: as §1
In data set [9] the test system is Triticum aestivum (TRZAS). The data set can be described thus: Post-emergence crop plant compatibility, greenhouse pot test. The following applies: crop plant, post-emergence, 1.25 g/ha. On the procedure: as §1
The observed effects on selected crop plants are reported here in comparison to the untreated controls (values in %).

In the case of `Cn1c(C(F)(F)F)cc(=O)n(-c2cc(Oc3ccccc3OCC(=O)OCC3(C)CC3)c(Cl)cc2F)c1=O` [I.7-5], in data set [1], the “Post-emergence effect at 5 g/ha against ECHCG in %” value is recorded as 100% and the “Post-emergence effect at 20 g/ha against ECHCG in %” value was found to be 100%. Moreover, the “Post-emergence effect at 1.25 g/ha against SETVI in %” value in the data set on Setaria viridis (SETVI) (1.25 g/ha) amounted to 100%. Further, in the data set on Setaria viridis (SETVI), the “Post-emergence effect at 5 g/ha against SETVI in %” value is 100% and the “Post-emergence effect at 20 g/ha against SETVI in %” value was determined as 100%. Further, in the data set with Veronica persica (VERPE), the “Post-emergence effect at 1.25 g/ha against VERPE in %” value turned out to be 100%, the “Post-emergence effect at 5 g/ha against VERPE in %” value worked out at 100% and the “Post-emergence effect at 20 g/ha against VERPE in %” value was 100%. The “Post-emergence effect at 1.25 g/ha against PHBPU in %” value in data set [2] (1.25 g/ha) amounted to 100%. Moreover, in [2], the “Post-emergence effect at 5 g/ha against PHBPU in %” value is reported as 100% and the “Post-emergence effect at 20 g/ha against PHBPU in %” value stood at 100%. The “Post-emergence effect at 1.25 g/ha against KCHSC in %” value with Bassia scoparia (KCHSC) (1.25 g/ha) was found to be 100%. For the same compound, in the data set with Bassia scoparia (KCHSC), the “Post-emergence effect at 5 g/ha against KCHSC in %” value turned out to be 100% and the “Post-emergence effect at 20 g/ha against KCHSC in %” value is on record as 100%. Besides, in [3], the “Post-emergence effect at 1.25 g/ha against AMARE in %” value is reported as 100%, the “Post-emergence effect at 5 g/ha against AMARE in %” value is 100% and the “Post-emergence effect at 20 g/ha against AMARE in %” value came to 100%. The “Post-emergence effect at 5 g/ha against ALOMY in %” value in [4] (5 g/ha) is reported as 80%. Moreover, the “Post-emergence effect at 20 g/ha against ALOMY in %” value in data set [4] turned out to be 100%. Also, in data set [5] (5 g/ha), the “Post-emergence effect at 5 g/ha against DIGSA in %” value turned out to be 100%. For the same compound, the “Post-emergence effect at 20 g/ha against DIGSA in %” value in [5] was determined as 100%. In addition, in [6] (5 g/ha), the “Post-emergence effect at 5 g/ha against MATIN in %” value came out at 100%. Also, the “Post-emergence effect at 20 g/ha against MATIN in %” value in data set [6] (20 g/ha) came to 100%. For the same compound, in data set [7] (1.25 g/ha), the “Post-emergence effect at 1.25 g/ha against ABUTH in %” value is given as 100%. Besides, the “Post-emergence effect at 5 g/ha against ABUTH in %” value in data set [7] (5 g/ha) amounted to 100%. In addition, the “Post-emergence effect at 20 g/ha against ABUTH in %” value in [7] is listed as 100%. The “Post-emergence effect at 20 g/ha against POLCO in %” value in data set [8] is 100%. In addition, the “Post-emergence effect at 1.25 g/ha against VIOTR in %” value with Viola tricolor (VIOTR) (1.25 g/ha) came out at 100%. Moreover, in the data set with Viola tricolor (VIOTR), the “Post-emergence effect at 5 g/ha against VIOTR in %” value was found to be 100% and the “Post-emergence effect at 20 g/ha against VIOTR in %” value worked out at 100%.
Consider `CC(OC(=O)COc1ccccc1Oc1cc(-n2c(=O)cc(C(F)(F)F)n(C)c2=O)c(F)cc1Cl)C1CCCCC1` (centres unmarked) [I.7-15], for which, in data set [1], the “Post-emergence effect at 5 g/ha against ECHCG in %” value came to 90% and the “Post-emergence effect at 20 g/ha against ECHCG in %” value is reported as 100%. In the data set on Setaria viridis (SETVI), the “Post-emergence effect at 5 g/ha against SETVI in %” value is listed as 100% and the “Post-emergence effect at 20 g/ha against SETVI in %” value is reported as 100%. Also, in the data set on Veronica persica (VERPE), the “Post-emergence effect at 1.25 g/ha against VERPE in %” value is given as 80%, the “Post-emergence effect at 5 g/ha against VERPE in %” value stood at 100% and the “Post-emergence effect at 20 g/ha against VERPE in %” value amounted to 100%. In [2], the “Post-emergence effect at 5 g/ha against PHBPU in %” value was 100% and the “Post-emergence effect at 20 g/ha against PHBPU in %” value was determined as 100%. Moreover, in the data set with Bassia scoparia (KCHSC), the “Post-emergence effect at 5 g/ha against KCHSC in %” value is 100% and the “Post-emergence effect at 20 g/ha against KCHSC in %” value stood at 100%. In [3], the “Post-emergence effect at 1.25 g/ha against AMARE in %” value is recorded as 100%, the “Post-emergence effect at 5 g/ha against AMARE in %” value worked out at 100% and the “Post-emergence effect at 20 g/ha against AMARE in %” value is recorded as 100%. Besides, in data set [4], the “Post-emergence effect at 20 g/ha against ALOMY in %” value stood at 80%. In data set [5], the “Post-emergence effect at 20 g/ha against DIGSA in %” value was 100%. Further, the “Post-emergence effect at 20 g/ha against ABUTH in %” value in [7] was found to be 100%. For the same compound, in data set [8], the “Post-emergence effect at 20 g/ha against POLCO in %” value worked out at 100%. Further, in the data set on Viola tricolor (VIOTR), the “Post-emergence effect at 5 g/ha against VIOTR in %” value is 100% and the “Post-emergence effect at 20 g/ha against VIOTR in %” value is recorded as 100%. For the same compound, in data set [9], the “Post-emergence effect at 1.25 g/ha against TRZAS in %” value amounted to 20%.
With `Cn1c(C(F)(F)F)cc(=O)n(-c2cc(Oc3ccccc3OCC(=O)OC3CCCCC3)c(Cl)cc2F)c1=O` [a-29, reference compound], the “VERPE (efficacy in %)” value in the data set with Veronica persica (VERPE) (Table B4 comparison, application rate 1.25 g/ha) is listed as 90%.
For the compound `Cn1c(C(F)(F)F)cc(=O)n(-c2cc(Oc3ccccc3OCC(=O)OC3CCCCCC3)c(Cl)cc2F)c1=O` [reference compound], the “ECHCG (efficacy in %)” value in data set [1] (Table B5 comparison, application rate 1.25 g/ha) stood at 80%.
